This assay concerns JeKo-1 cells. Kind of assay: Co-culture of T cells (unmodified or expressing nfP2X7 CAR) with JeKo-1 cells, with or without blocking peptide. Format: cell-based. To be noted: FIG. 3. Here is the method: More specifically, T cells (either unmodified or expressing nfP2X7 CAR) were cultured with JeKo-1 cells at an ET ratio of 5 to 1. Blocking was performed using peptide variant 2 at 5 μg/mL.
On day 5 of co-culture the cell counts were measured and evaluated for total JeKo-1 cell count. The total number of JeKo-1 cells added in the experiment was 20,000 on day 1 and day 3 of the experiment (therefore the total amount of added cells was 40,000 JeKo-1 per condition).
Addition of the blocking peptide variant 2 at 5 ug/mL reversed this such that after 5 days, 40,000 JeKo-1 cells were present in culture.

Regarding “DFPGHNYTTRNILPGLNITSTFHKTSGSGKGGGGS (E200_extended peptide 17v12 (35 aa) + linker) [peptide variant 2]”, the “total JeKo-1 cell count” value by setting is: (T cells expressing nfP2X7 CAR, ET 5 to 1, peptide at 5 ug/mL, day 5 of co-culture, 40,000 JeKo-1 added in total) 40,000 cells; (T cells that do not express nfP2X7 CAR (60,000 cells after 5 days without peptide), effect of adding blocking peptide) “not changed”.

The values above are taken from US20250282844A1, “METHODS FOR CONTROLLING IMMUNE CELL ACTIVITY” (BIOSCEPTRE (AUST) PTY LTD, priority 2021, published 2025).
